Results published in PubChem BioAssay (NCI).
Several values for one entry are separate records, joined by “and”; a condition that tells them apart may be missing. Identical values can stand only once.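 Cultured in 96-well plates, cells were exposed to test compound for 48 hours across five concentrations. At the GI50, growth is halved. At the TGI there is no net growth.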

How the values were obtained:
Experiment in all cases: NCI tumour cell line growth inhibition, 48 h
SNB-75 CNS = tested on: SNB-75 CNS
MDA-MB-231 breast = tested on: MDA-MB-231 breast
SK-MEL-2 melanoma = tested on: SK-MEL-2 melanoma
NCI/ADR-RES ovarian = tested on: NCI/ADR-RES ovarian
CAKI-1 renal = tested on: CAKI-1 renal
OVCAR-8 ovarian = tested on: OVCAR-8 ovarian
SK-OV-3 ovarian = tested on: SK-OV-3 ovarian
CCRF-CEM leukemia = tested on: CCRF-CEM leukemia
DU-145 prostate = tested on: DU-145 prostate
NCI-H522 lung = tested on: NCI-H522 lung
T-47D breast = tested on: T-47D breast
SF-268 CNS = tested on: SF-268 CNS
NCI-H226 lung = tested on: NCI-H226 lung

SMILES	TGI (SNB-75 CNS)	TGI (MDA-MB-231 breast) [µM]	TGI (SK-MEL-2 melanoma) [µM]	TGI (NCI/ADR-RES ovarian) [µM]	TGI (CAKI-1 renal) [µM]	TGI (OVCAR-8 ovarian) [µM]	TGI (SK-OV-3 ovarian) [µM]	TGI (CCRF-CEM leukemia) [µM]	TGI (DU-145 prostate) [µM]	TGI (NCI-H522 lung) [µM]	TGI (T-47D breast) [µM]	TGI (SF-268 CNS)	TGI (NCI-H226 lung) [µM]	GI50 (SNB-75 CNS)	GI50 (MDA-MB-231 breast)	GI50 (NCI/ADR-RES ovarian) [µM]	GI50 (OVCAR-8 ovarian)	GI50 (T-47D breast)	GI50 (SF-268 CNS)
O=C1CC2SC(COCc3ccccc3)(CCN2Cc2ccccc2)C1 (stereo not drawn)	> 100 µM	> 100	> 100	> 100	> 100	> 100	> 100	> 100	> 100	> 100	> 100	> 100 µM	> 100						
CC1CN=C(Nc2ccc(F)c(Cl)c2)S1 (stereo not drawn)	> 100 µM	> 100	> 100	> 100	> 100	> 100	> 100	> 100	> 100	> 100	> 100	> 100 µM	> 100						
CN(CCCn1ccnc1[N+](=O)[O-])CCCn1ccnc1[N+](=O)[O-]	> 100 µM	> 100	> 100	> 100	> 100	> 100	> 100	> 100	> 100	> 100	> 100	> 100 µM	> 100						
CCCC(=O)NC(Nc1ccc(S(=O)(=O)Nc2ccc(OC)nn2)cc1)(C(F)(F)F)C(F)(F)F	> 100 µM	> 100	> 100	> 100	> 100	> 100	> 100	> 100	> 100	> 100	> 100	> 100 µM	> 100						
O=c1oc2ccc3ccccc3c2cc1-c1nc2ccc([N+](=O)[O-])cc2o1	> 100 µM	> 100	> 100	> 100	> 91.4	> 100	> 100	> 100	> 100	> 100	> 100	> 90.2 µM	> 100						
COc1cccc(/C=C\c2ccc(O)cc2)c1	70.2 µM	> 100	68.8	31.7	> 84.1	56.2	> 100	1.22	56.6	56.8	> 84.2	> 96.7 µM	> 88.8						
CSc1c(C#N)c(S)[nH]c(=O)c1C#N	> 100 µM	> 100	> 100	> 100	> 100	> 100	> 100	> 100	> 100	> 100	> 100	> 100 µM	> 100						
Cc1ccc(N2C(N)=C(C#N)C(C#N)(C#N)C2c2ccccc2)cc1 (stereo not drawn)	28 µM	25.3	38.2	36.1	30.9	40.2	47.6	7.33	28.2	21.5	21.4	65.9 µM	38.9						
COc1cc2c[n+](C)c3c4cc(OC)c(OC)cc4ccc3c2cc1OC	> 100 µM and 98.9 µM	> 100	> 100	> 100	> 100	> 100	> 100	> 100	> 100	42.2	> 100	> 100 µM and 37.6 µM	> 100	> 100 µM and 31.6 µM	> 100 µM and 18.6 µM	> 100	32.9 µM and 15 µM	> 100 µM and 10.1 µM	22.6 µM and 3.32 µM
Nc1nc(=S)n(-c2ccc(Cl)cc2)c2nc3ccccc3cc12	97 µM	> 100	> 100	> 100	> 100	> 100	> 100	> 100	> 100	> 100	> 100	> 100 µM	> 100						
Cc1csc(NNC(=O)Nc2ccccc2)n1	> 100 µM	> 100	> 100	> 100	> 100	> 100	> 100	> 100	> 100	> 100	> 100	> 100 µM	> 100						
CC1(C)OC(=O)C(Cc2ccccc2)(Cc2ccccc2)C(=O)O1	> 100 µM	> 100	> 100	> 100	> 100	> 100	> 100	> 100	> 100	> 100	> 100	> 100 µM	> 100						
COc1cc2c[n+](C)c3c(c2cc1OC)Cc1cc2c(cc1-3)OCO2	> 100 µM	> 100	> 100	> 100	> 100	> 100	> 100	> 100	> 100	> 100	> 100	> 100 µM	> 100						
c1ccc([P+](c2ccccc2)(c2ccccc2)C2c3ccccc3-c3ccccc32)cc1	7.06 µM	6.84	3.87	41.9	69.1	10.1	4.33	7.61	60.6	6.06	12.5	9.37 µM	5.94						
COc1cccc(-c2c(-c3ccccc3)[nH]c(C)c2C(=O)ONC(=O)c2ccccc2)c1	18.9 µM	22.9	23.6	26	11.3	19.1	29.8	> 27.3	11.8	14.2	23.9	22 µM	30.7						
S=C(N1CCN(c2ccccc2)CC1)N1CCN(c2ccccc2)CC1	> 100 µM	> 100	> 100	> 100	> 100	> 100	> 100	68.7	> 100	> 100	> 100	> 100 µM	> 100						
O=C1O/C(=C\c2ccc(O)cc2)C(c2ccc(O)c(Cl)c2)=C1Cl	> 100 µM	> 100	77.4	97.6	> 100	> 100	> 100	> 100	> 100	53.3	> 100	> 100 µM	> 100						
O=c1c2c(F)c(F)c(F)c(F)c2sc2nccn12	50.4 µM	35.9	38.5	93.3	33.3	44.8	36	29.6	41.9	37.2	24.2	36.2 µM	52.3						
Cn1c(=O)c(Cl)c(N=[N+]=[N-])c2ccccc21	> 100 µM	> 100	> 100	> 100	> 100	> 100	> 100	> 100	> 100	> 100	> 100	> 100 µM	> 100						
O=C1C(S(=O)(=O)c2ccccc2)=C(CS(=O)(=O)c2ccccc2)[C@@H](OCc2ccccc2)[C@@H]1OCc1ccccc1	> 100 µM	60	33.5	54.4	> 100	39.8	> 100	42.7	> 100	35.9	> 100	> 100 µM	37.3						
COC1/C=C/C(C)C(C(C)C(OC)C(C)CCC(=O)C(C)C(CC(=O)O)OC)OC(=O)/C=C/C=C(\C)CC(OC)CC2=CC(=O)O[C@H](C2)C(C)C(OC)CC(OC)/C=C/C(C)C(OC)C1 (stereo partly drawn)	0.0426 µM	> 4.35	> 4.35	> 4.35	0.851	> 4.35	> 4.35	> 4.35	> 4.35	1.82	> 4.35	0.207 µM	2.26						
COC1CC(O[C@H]2CC[C@@]3(C)[C@@H](CC[C@]4(O)[C@@H]3CC[C@]3(C)[C@@H](C(C)=O)[C@H](OC(=O)CC(C)C)[C@@H](OC(=O)c5ccccc5)[C@@]34O)C2)OC(C)C1OC1CC(OC)C(OC2OC(C)C(O)C(OC)C2O)C(C)O1 (stereo partly drawn)	> 25 µM	> 25	> 25	> 25	> 25	> 25	> 25	> 25	> 25	> 25	> 25	> 25 µM	> 25						
CC(O)[C@@]1(c2ccccc2)CC2(CCN(C)CC2)O[C@H]1C (stereo partly drawn)	> 100 µM	> 100	> 100	> 100	> 100	> 100	> 100	79	> 100	> 100	98	> 100 µM	> 100						
C=CC1(C)OC2(CCN(C(=O)OCC)CC2)OC1C (stereo not drawn)	> 100 µM	> 100	> 100	> 100	> 100	> 100	> 100	> 100	> 100	> 100	> 100	> 100 µM	> 100						
